Literature values in patent US20030009042A1, “Method for making hydroxy-25-ene-vitamin D compounds” (Bone Care International, Inc., priority 1998, published 2003).
Like-named read-outs stand apart in the source and are kept apart here.

Experiments:
[1] = oral, 0.5 μg/day, postmenopausal women
[2] = not given; remark: listed apart in the source

Structure (SMILES)	effects on bone mass or mineral content (dosage levels below 0.5 μg/day)	efficacy in preventing or restoring loss of bone mass or bone mineral content (dosage ranges taught in the '596 Patent)	intestinal calcium absorption and calcium balance [1]	efficacy (bone mass) (1 μg/day, Japan, population with low calcium intake)	efficacy in increasing bone mass (two μg/day, patients exhibiting senile osteoporosis)	toxicity, percentage of the patients ([2]; 1 μg/day)	toxicity, percentage of the patients ([2]; 2 μg/day)
C=C1/C(=C\C=C2/CCC[C@]3(C)[C@@H]([C@H](C)CCCC(C)(C)O)CC[C@@H]23)C[C@@H](O)C[C@@H]1O [1α,25-dihydroxyvitamin D3]	no effects are observed	at best, modest efficacy	improved intestinal calcium absorption as well as calcium balance	–	–	–	–
C=C1/C(=C\C=C2/CCC[C@]3(C)[C@@H]([C@H](C)CCCC(C)C)CC[C@@H]23)C[C@@H](O)C[C@@H]1O [1α-hydroxyvitamin D3]	–	–	–	efficacy is found	found to have efficacy in increasing bone mass	approximately 20%	approximately 67%
